This is an account of results in PubChem BioAssay (NCI).

Where “and” joins values, the source holds several entries; their conditions need not be identical. Identical values can stand only once.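 96-well plates; 48 h exposure; 5 concentrations. Endpoints by linear interpolation between flanking doses. Not reached: highest tested concentration assigned. Here, GI50 denotes the concentration required for 50% inhibition of growth. TGI is the concentration that stops growth completely.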

Test systems include SF-539 CNS; COLO 205 colon; SNB-75 CNS; SK-MEL-5 melanoma; HOP-62 NSCLC; SW-620 colon; OVCAR-3 ovarian; K-562 leukemia.
What all share (assay): NCI anticancer screen, dose series, 48 h

Regarding `COC(=O)C1C(=O)CC2CCCCC21` (stereo unspecified), the TGI in the assay on SF-539 CNS, with COLO 205 colon, with SNB-75 CNS, with SK-MEL-5 melanoma, in the assay with HOP-62 NSCLC and in the assay with SW-620 colon was more than 100 µM in each case. For the same compound, the TGI with OVCAR-3 ovarian and in the assay on K-562 leukemia was more than 100 µM in each case.
On to `CN(C)/C=N\c1ccnc(=O)[nH]1`, for which the TGI in the assay on SF-539 CNS, with COLO 205 colon, in the assay on SNB-75 CNS, with SK-MEL-5 melanoma, in the assay on HOP-62 NSCLC and in the assay on SW-620 colon was more than 100 µM throughout. Moreover, the TGI in the assay with OVCAR-3 ovarian and with K-562 leukemia was more than 100 µM in each case.
With `Cc1ccc(Oc2ccccc2N)cc1`, the TGI with SF-539 CNS is 40.1 µM; with COLO 205 colon, 19.2 µM; with SNB-75 CNS it was 60.6 µM; in the assay on SK-MEL-5 melanoma it was 26.2 µM; with HOP-62 NSCLC, more than 100 µM; in the assay with SW-620 colon, more than 100 µM. The results for the TGI in the assay with OVCAR-3 ovarian and in the assay on K-562 leukemia were 55 µM and more than 100 µM, respectively.
For the compound `Cl/C(N=Nc1ccccc1)=N/Nc1ccccc1`, the TGI in the assay with SF-539 CNS, in the assay on COLO 205 colon, in the assay with HOP-62 NSCLC, with SW-620 colon and in the assay with K-562 leukemia was more than 100 µM in each case.
Take `NNc1cnn(-c2ccccc2)c(=O)c1Cl`: the TGI in the assay on SF-539 CNS, with COLO 205 colon, with SNB-75 CNS, with SK-MEL-5 melanoma, with HOP-62 NSCLC and in the assay with SW-620 colon was more than 100 µM throughout. Also, the TGI in the assay with OVCAR-3 ovarian and with K-562 leukemia was more than 100 µM throughout.
Consider `Cc1c2c(cc3c1C(=O)C(=O)C1=C3OC[C@@H]1C)C(C)(C)CCC2`, for which the TGI came out at 29.8 µM in the assay on SF-539 CNS; 20.4 µM in the assay with COLO 205 colon; 41.9 µM in the assay on SNB-75 CNS; 26.1 µM with SK-MEL-5 melanoma; 36.4 µM with HOP-62 NSCLC; 28.4 µM in the assay with SW-620 colon. Also, the TGI with OVCAR-3 ovarian was 34.9 µM; in the assay on K-562 leukemia, 34.5 µM.
Regarding `COc1ccc(OC(C(=O)O)C(C)C)c2c1CCCC2=O` (stereo unspecified), the TGI in the assay on SF-539 CNS, in the assay with COLO 205 colon, with SK-MEL-5 melanoma, with HOP-62 NSCLC, with SW-620 colon and in the assay with OVCAR-3 ovarian was more than 100 µM each time. The compound also yielded a TGI in the assay with K-562 leukemia of more than 100 µM.
Regarding `CC(=O)NC(CCCCN)C(=O)NCc1ccccc1` (stereo unspecified), the TGI with SF-539 CNS, in the assay with COLO 205 colon, in the assay with SNB-75 CNS, with SK-MEL-5 melanoma, with HOP-62 NSCLC and in the assay on SW-620 colon was more than 100 µM in each case. Also, the TGI with OVCAR-3 ovarian and in the assay with K-562 leukemia was more than 100 µM in each case.
On to `C#CCNC(=O)NCCCCC(NC(=O)OCc1ccccc1)C(=O)OCc1ccccc1` (stereo unspecified), for which the TGI was more than 100 µM in the assay with SF-539 CNS; 32.8 µM in the assay with COLO 205 colon; more than 100 µM in the assay on SNB-75 CNS; more than 100 µM in the assay with SK-MEL-5 melanoma; more than 43 µM with HOP-62 NSCLC; more than 100 µM in the assay on SW-620 colon. Moreover, the TGI in the assay with OVCAR-3 ovarian and in the assay with K-562 leukemia was more than 100 µM each time.
In the case of `[O-]c1ccccc1C=Nc1ccc2c(c1)CCC2.[O-]c1ccccc1C=Nc1ccc2c(c1)CCC2.[O]=[U+2]=[O]`, the GI50 with SF-539 CNS was 14.2 µM; in the assay on COLO 205 colon, 55.2 µM; with SNB-75 CNS it was 82.7 µM; in the assay on SK-MEL-5 melanoma, 60.8 µM; in the assay with HOP-62 NSCLC, more than 100 µM; with SW-620 colon, more than 100 µM. Moreover, the GI50 was more than 100 µM in the assay on OVCAR-3 ovarian and 11.8 µM in the assay on K-562 leukemia. Also, the TGI in the assay on SF-539 CNS, with COLO 205 colon, in the assay on SNB-75 CNS, in the assay with SK-MEL-5 melanoma, with HOP-62 NSCLC and in the assay with SW-620 colon was more than 100 µM in each case. The TGI in the assay on OVCAR-3 ovarian and in the assay with K-562 leukemia was more than 100 µM in each case.
Regarding `CC(C)(O)/C=C/C(=O)[C@](C)(O)[C@H]1[C@H](O)C[C@@]2(C)[C@@H]3CC=C4[C@@H](C[C@H](O)C(=O)C4(C)C)[C@]3(C)C(=O)C[C@]12C`, the GI50 in the assay with SF-539 CNS was 0.217 µM; with COLO 205 colon, 0.0919 µM; with SNB-75 CNS, 0.0496 µM; with SK-MEL-5 melanoma, 0.0565 µM and 0.11 µM; with HOP-62 NSCLC, 0.337 µM; in the assay with SW-620 colon, 0.104 µM. For the same compound, the results for the GI50 with OVCAR-3 ovarian and with K-562 leukemia were 0.125 µM and 0.0608 µM, respectively. Moreover, the TGI was 0.614 µM and 0.264 µM in the assay with SF-539 CNS; 0.682 µM and 2.44 µM in the assay with SK-MEL-5 melanoma; 0.699 µM and 0.547 µM in the assay on HOP-62 NSCLC; 9.68 µM in the assay on SW-620 colon; 1.02 µM with OVCAR-3 ovarian; 37 µM in the assay on K-562 leukemia.
In the case of `O=C1OC(c2ccccc2)=N/C1=C\c1ccc(Oc2ccc(Cl)c(Cl)c2)cc1`, the TGI in the assay on SF-539 CNS is 58.4 µM; with COLO 205 colon, more than 100 µM; in the assay with SK-MEL-5 melanoma it was 81.6 µM; in the assay on HOP-62 NSCLC, more than 100 µM; in the assay with SW-620 colon, more than 100 µM; in the assay with K-562 leukemia it was 73.6 µM.
Consider `Cc1cc(C)nc(/C(=N\NC(N)=O)C(=O)Nc2nc3ccc(C)cc3s2)c1`, for which the TGI in the assay on SF-539 CNS was more than 100 µM; in the assay on COLO 205 colon, more than 73.5 µM; with SNB-75 CNS, more than 100 µM; with SK-MEL-5 melanoma it was more than 100 µM; in the assay with HOP-62 NSCLC it was more than 100 µM; with SW-620 colon it was more than 100 µM. The TGI in the assay with OVCAR-3 ovarian and with K-562 leukemia was more than 100 µM throughout.
As for `C[Si](C)(C)C(CCCCSc1ccccc1)(Sc1ccccc1)Sc1ccccc1`, the TGI with SF-539 CNS, in the assay with COLO 205 colon, in the assay on SNB-75 CNS, in the assay on SK-MEL-5 melanoma, in the assay with SW-620 colon and with K-562 leukemia was more than 100 µM in each case.
On to `CCc1cccc(C)c1N1C(=O)C(=O)C(c2nc3ccccc3o2)C(=O)C1=O`, for which the TGI in the assay with SF-539 CNS, in the assay with COLO 205 colon, with SNB-75 CNS, with SK-MEL-5 melanoma, with HOP-62 NSCLC and in the assay on SW-620 colon was more than 100 µM each time. The TGI in the assay on OVCAR-3 ovarian and with K-562 leukemia was more than 100 µM throughout.
